Experimental findings from US11932602B2, “Method for preparing nicotinamide mononucleotide cocrystal” (BONTAC BIO-ENGINEERING(SHENZHEN) CO., LTD, priority 2021, dated 2024) are described below.

The conditions of this data set: screened with a sieve (1.00 mm, No. 18), poured into glass graduated measuring cylinder, apparent volume. How it is done: The tops were scraped flat. The apparent volumes were recorded. The bulk densities were calculated.

Consider `NC(=O)c1ccc[n+]([C@@H]2O[C@H](COP(=O)([O-])O)[C@@H](O)[C@H]2O)c1` [Form 1, nicotinamide mononucleotide anhydrous crystal (form 1)], for which the Bulk density stood at 0.15 g/mL.
